Source: ChEMBL document CHEMBL4507276 (2021)

What was measured:
[1] = molecular target: Serine/threonine-protein kinase D1 (Homo sapiens) (UniProt Q15139); conditions: Compound concentration 1000.0 nM
[2] = system: Phosphatidylinositol 4,5-bisphosphate 3-kinase catalytic subunit alpha isoform (Homo sapiens), P42336 [E542K]; conditions: Compound concentration 1000.0 nM
[3] = system: Phosphatidylinositol 4,5-bisphosphate 3-kinase catalytic subunit alpha isoform (Homo sapiens), P42336 [C420R]; conditions: Compound concentration 1000.0 nM
[4] = molecular target: Myosin light chain kinase family member 4 (Homo sapiens) (UniProt Q86YV6); conditions: Compound concentration 1000.0 nM
[5] = molecular target: Serine/threonine-protein kinase mTOR (Homo sapiens) (UniProt P42345); conditions: Compound concentration 1000.0 nM
[6] = molecular target: Rho-associated protein kinase 1 (Homo sapiens) (UniProt Q13464); conditions: Compound concentration 1000.0 nM
[7] = molecular target: Activin receptor type-2B (Homo sapiens) (UniProt Q13705); conditions: Compound concentration 1000.0 nM
[8] = molecular target: T1, Discoidin domain-containing receptor 2 (Homo sapiens) (UniProt Q16832); conditions: Compound concentration 1000.0 nM
T1 sequence (whole entry): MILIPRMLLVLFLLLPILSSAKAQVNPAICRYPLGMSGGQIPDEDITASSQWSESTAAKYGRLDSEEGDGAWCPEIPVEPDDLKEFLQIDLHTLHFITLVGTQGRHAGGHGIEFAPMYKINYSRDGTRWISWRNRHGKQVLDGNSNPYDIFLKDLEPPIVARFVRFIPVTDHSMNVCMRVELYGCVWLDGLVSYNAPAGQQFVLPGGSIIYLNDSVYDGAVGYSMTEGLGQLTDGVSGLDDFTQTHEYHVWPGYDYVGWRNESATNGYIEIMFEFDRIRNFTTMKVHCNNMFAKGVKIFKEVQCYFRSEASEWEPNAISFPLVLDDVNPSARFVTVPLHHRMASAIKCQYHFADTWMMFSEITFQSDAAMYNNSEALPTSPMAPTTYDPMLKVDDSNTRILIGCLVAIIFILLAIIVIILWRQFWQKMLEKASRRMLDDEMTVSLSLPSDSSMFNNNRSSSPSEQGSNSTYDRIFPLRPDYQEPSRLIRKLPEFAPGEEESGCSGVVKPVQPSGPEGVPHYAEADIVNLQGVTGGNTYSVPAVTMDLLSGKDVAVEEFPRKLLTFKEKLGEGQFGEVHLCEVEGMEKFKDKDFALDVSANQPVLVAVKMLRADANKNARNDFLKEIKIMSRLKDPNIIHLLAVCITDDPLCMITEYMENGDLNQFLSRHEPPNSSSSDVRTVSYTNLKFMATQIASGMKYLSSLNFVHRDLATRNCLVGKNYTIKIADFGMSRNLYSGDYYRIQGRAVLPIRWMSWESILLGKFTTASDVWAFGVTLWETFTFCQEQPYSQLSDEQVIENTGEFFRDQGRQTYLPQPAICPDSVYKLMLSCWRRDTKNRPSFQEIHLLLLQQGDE

[9] = molecular target: T2, Activin receptor type-1 (Homo sapiens) (UniProt Q04771); conditions: Compound concentration 1000.0 nM
T2 sequence (whole entry): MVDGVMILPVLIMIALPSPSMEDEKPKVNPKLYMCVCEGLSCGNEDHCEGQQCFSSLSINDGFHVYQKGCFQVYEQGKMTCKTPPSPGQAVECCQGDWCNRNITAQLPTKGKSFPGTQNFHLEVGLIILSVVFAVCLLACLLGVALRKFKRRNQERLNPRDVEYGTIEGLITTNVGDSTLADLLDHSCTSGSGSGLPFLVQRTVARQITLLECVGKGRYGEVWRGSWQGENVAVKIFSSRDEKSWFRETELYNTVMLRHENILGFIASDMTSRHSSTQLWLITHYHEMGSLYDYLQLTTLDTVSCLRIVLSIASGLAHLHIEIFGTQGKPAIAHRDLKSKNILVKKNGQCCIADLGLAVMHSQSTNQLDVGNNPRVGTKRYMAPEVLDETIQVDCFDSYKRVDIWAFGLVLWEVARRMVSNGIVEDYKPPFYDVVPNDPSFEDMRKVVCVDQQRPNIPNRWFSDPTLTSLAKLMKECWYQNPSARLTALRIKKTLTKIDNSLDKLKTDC

[10] = molecular target: TGF-beta receptor type-2 (Homo sapiens) (UniProt P37173); conditions: Compound concentration 1000.0 nM
[11] = molecular target: cAMP-dependent protein kinase catalytic subunit beta (Homo sapiens) (UniProt P22694); conditions: Compound concentration 1000.0 nM
[12] = molecular target: Tyrosine-protein kinase Lyn (Homo sapiens) (UniProt P07948); assay: LYNAKINASE(H) Cerep selectivity data (BI); conditions: Compound concentration 20.0 uM
[13] = molecular target: T3, Tyrosine-protein kinase Mer (Homo sapiens) (UniProt Q12866); assay: MERTK Invitrogen selectivity data (BI); conditions: Compound concentration 3.0 uM
T3 sequence (whole entry): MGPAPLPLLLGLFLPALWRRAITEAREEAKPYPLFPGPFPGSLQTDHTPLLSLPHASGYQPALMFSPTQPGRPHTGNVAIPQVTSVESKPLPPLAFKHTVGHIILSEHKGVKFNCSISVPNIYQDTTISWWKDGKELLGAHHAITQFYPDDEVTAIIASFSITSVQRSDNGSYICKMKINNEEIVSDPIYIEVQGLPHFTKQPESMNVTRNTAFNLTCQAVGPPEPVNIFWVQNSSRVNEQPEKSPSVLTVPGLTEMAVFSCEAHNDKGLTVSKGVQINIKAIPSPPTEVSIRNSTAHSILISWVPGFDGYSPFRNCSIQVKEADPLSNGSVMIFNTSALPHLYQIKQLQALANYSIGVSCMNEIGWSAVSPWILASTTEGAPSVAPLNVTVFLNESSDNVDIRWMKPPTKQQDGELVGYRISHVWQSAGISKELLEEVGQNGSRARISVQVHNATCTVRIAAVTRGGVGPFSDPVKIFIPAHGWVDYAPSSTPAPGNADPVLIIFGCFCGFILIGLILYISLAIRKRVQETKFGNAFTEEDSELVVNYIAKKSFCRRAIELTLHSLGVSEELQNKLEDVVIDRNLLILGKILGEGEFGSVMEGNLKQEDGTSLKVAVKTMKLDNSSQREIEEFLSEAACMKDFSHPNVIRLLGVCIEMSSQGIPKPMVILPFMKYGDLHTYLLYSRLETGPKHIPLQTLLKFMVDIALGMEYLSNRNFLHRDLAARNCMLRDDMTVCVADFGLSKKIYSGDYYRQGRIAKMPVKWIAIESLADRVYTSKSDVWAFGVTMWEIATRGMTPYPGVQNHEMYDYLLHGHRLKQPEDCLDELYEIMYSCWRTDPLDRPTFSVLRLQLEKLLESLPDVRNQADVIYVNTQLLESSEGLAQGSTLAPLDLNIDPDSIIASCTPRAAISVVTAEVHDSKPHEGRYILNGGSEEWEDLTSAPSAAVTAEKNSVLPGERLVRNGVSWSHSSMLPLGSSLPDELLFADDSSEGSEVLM

Measured: residual activity

Chain of Activin receptor type-2B (Homo sapiens) (Q13705 whole entry, the tested form may be a part): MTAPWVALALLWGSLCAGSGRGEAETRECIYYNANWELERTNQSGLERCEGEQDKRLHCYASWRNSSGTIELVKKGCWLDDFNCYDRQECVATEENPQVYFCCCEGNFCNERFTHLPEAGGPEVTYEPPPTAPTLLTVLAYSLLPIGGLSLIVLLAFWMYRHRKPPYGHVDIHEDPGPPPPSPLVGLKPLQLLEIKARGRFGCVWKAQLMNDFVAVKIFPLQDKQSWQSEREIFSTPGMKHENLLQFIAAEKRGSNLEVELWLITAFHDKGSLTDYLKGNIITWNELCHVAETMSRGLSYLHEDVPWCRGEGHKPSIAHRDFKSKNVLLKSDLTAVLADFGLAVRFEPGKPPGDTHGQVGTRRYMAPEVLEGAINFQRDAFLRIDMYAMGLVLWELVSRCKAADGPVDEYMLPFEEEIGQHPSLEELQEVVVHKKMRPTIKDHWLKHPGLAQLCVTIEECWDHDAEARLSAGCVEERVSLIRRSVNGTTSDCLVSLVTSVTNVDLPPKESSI
Chain of TGF-beta receptor type-2 (Homo sapiens) (P37173 whole entry): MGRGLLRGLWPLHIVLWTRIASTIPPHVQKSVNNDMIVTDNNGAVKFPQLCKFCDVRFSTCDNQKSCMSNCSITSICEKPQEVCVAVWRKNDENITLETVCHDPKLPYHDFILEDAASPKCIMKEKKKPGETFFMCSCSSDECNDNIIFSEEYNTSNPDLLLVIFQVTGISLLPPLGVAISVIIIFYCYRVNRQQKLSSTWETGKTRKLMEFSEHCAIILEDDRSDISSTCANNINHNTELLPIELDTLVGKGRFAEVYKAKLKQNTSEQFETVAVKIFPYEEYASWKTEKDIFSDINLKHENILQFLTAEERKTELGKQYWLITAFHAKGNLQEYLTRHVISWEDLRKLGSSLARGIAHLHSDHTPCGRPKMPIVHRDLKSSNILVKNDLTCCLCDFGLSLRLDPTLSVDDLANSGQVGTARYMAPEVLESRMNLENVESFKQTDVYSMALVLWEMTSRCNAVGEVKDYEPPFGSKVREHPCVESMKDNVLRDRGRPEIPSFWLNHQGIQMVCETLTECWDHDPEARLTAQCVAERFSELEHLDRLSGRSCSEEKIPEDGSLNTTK
Chain of Myosin light chain kinase family member 4 (Homo sapiens) (Q86YV6 whole entry): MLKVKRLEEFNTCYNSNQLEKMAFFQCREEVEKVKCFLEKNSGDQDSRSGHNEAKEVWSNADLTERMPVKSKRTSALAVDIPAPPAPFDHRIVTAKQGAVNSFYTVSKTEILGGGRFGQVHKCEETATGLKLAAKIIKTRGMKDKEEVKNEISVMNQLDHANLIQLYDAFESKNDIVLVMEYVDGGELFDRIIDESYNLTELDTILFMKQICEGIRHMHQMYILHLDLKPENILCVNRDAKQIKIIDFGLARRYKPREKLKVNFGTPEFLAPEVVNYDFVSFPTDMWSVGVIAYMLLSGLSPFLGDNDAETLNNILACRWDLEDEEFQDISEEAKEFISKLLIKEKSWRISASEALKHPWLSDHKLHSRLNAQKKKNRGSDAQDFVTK
Chain of Serine/threonine-protein kinase D1 (Homo sapiens) (Q15139 whole entry, canonical isoform): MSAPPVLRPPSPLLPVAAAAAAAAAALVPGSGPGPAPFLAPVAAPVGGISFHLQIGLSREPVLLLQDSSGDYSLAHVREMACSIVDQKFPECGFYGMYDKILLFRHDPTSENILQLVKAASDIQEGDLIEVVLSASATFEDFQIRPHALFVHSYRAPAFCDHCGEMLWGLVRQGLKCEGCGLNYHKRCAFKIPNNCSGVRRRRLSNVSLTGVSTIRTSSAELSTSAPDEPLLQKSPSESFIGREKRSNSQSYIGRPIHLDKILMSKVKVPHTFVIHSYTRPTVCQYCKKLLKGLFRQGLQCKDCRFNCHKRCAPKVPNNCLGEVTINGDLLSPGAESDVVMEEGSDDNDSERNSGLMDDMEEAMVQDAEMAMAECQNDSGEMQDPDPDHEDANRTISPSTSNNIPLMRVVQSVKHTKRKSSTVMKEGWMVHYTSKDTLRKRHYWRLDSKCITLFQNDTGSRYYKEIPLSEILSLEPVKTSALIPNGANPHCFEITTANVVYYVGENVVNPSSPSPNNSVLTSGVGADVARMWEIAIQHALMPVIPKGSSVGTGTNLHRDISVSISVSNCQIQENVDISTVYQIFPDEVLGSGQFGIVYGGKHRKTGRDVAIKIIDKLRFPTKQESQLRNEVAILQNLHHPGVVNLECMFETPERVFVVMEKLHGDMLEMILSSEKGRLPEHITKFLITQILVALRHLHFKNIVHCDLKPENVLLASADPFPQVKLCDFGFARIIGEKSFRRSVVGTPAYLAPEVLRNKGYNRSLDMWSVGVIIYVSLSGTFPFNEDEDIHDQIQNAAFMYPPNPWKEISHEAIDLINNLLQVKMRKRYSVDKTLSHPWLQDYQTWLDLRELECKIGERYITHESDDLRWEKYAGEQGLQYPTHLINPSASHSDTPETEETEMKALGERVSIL
Chain of Phosphatidylinositol 4,5-bisphosphate 3-kinase catalytic subunit alpha isoform (Homo sapiens), P42336 [E542K] (P42336 whole entry E542K, canonical isoform): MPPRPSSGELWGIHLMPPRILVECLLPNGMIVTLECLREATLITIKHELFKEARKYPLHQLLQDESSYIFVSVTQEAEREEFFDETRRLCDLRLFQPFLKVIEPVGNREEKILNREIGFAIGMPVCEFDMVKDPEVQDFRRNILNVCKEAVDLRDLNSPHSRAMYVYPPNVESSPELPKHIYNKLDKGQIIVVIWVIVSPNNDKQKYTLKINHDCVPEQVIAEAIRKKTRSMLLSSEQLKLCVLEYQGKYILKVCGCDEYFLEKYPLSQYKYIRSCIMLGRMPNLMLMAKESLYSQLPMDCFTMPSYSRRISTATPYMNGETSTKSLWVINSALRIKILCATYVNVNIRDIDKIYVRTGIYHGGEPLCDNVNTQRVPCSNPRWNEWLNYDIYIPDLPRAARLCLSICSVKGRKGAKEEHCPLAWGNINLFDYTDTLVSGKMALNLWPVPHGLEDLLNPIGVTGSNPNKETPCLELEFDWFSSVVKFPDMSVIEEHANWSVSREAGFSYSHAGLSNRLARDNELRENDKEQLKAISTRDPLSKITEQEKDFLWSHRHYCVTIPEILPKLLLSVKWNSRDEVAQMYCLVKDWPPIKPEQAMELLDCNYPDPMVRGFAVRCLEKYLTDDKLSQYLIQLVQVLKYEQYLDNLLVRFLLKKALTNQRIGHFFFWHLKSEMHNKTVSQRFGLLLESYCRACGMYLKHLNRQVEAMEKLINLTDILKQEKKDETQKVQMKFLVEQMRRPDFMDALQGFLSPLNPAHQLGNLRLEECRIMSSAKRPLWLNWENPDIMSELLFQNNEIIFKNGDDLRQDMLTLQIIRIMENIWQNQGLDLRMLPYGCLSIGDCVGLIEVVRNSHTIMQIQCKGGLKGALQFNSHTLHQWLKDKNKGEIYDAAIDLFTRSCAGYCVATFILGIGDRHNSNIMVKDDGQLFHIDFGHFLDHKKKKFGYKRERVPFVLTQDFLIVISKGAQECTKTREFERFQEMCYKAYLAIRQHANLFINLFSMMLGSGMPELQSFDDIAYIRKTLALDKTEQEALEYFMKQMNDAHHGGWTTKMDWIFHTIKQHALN
Chain of Phosphatidylinositol 4,5-bisphosphate 3-kinase catalytic subunit alpha isoform (Homo sapiens), P42336 [C420R] (P42336 whole entry C420R, canonical isoform): as the sequence (P42336 whole entry E542K, canonical isoform) above, with C420R, K542E counted along it
Chain of Rho-associated protein kinase 1 (Homo sapiens) (Q13464 2-1354 limits assumed): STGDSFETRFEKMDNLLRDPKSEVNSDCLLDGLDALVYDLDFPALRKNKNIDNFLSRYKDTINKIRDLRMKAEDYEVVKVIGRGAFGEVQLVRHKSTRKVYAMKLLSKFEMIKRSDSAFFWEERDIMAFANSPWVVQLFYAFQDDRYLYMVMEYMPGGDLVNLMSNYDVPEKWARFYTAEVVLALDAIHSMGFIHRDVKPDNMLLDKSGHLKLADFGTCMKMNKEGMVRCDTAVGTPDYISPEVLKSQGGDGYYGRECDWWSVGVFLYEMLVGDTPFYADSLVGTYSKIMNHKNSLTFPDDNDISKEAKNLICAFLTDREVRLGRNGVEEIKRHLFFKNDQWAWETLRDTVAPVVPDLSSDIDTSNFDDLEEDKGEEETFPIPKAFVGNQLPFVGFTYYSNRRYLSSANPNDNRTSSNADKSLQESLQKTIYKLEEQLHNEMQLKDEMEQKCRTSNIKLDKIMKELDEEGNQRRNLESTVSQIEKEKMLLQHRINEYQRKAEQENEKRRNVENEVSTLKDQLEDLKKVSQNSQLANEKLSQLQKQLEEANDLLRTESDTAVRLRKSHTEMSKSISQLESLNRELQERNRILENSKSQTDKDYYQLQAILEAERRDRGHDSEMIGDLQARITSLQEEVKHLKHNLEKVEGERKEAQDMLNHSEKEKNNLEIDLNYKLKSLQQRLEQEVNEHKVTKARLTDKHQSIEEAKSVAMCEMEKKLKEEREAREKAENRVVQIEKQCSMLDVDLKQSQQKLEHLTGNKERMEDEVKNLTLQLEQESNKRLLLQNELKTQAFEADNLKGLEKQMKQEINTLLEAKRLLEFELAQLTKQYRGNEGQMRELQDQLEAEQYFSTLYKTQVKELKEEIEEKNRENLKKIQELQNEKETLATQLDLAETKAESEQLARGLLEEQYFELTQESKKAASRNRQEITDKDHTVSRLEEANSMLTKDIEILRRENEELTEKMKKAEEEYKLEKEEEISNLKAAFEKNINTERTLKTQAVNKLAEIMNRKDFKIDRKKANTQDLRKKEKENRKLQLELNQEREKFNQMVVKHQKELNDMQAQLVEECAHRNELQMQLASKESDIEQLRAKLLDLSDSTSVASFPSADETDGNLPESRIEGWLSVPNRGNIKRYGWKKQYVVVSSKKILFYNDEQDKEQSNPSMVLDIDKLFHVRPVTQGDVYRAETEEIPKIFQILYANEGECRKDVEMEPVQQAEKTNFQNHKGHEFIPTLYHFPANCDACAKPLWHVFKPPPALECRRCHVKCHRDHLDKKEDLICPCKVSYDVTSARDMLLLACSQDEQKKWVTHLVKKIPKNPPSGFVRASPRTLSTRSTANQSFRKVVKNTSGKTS

CN(C)C(=O)Cn1cc(-c2nc(C3(c4ccc(-c5cnc(N)nc5)cc4)CC3)no2)cn1 [BI 0153]
inactive: [1] 100% | [2] 76% | [3] 95% | [4] 100% | [5] 91% | [6] 83% | [7] 96% | [8] 100% | [9] 95% | [10] 100% | [11] 86%

CN(C)C(=O)Cn1cc(-c2nc([C@@](C)(c3ccc(-c4cnc(N)nc4)cc3)C3CC3)no2)cn1 [BI 665915]
inactive: [1] 100% | [2] 79% | [3] 73% | [12] 87% | [4] 100% | [13] 94% | [5] 100% | [6] 97% | [7] 81% | [8] 89% | [9] 84% | [10] 88% | [11] 100%
